The test addresses T1, FtsZ (Acinetobacter baumannii, UniProt A0ABX6CKC9).
T1 construct: full-length (1176 bp ftsZ gene), SUMO tag removed
The test can be described thus: PK/LDH coupled GTPase assay on purified FtsZ; sedimentation polymerization assay. The test is classed as biochemical.

pIC50: −log10 of the molar value.

T1 sequence (A0ABX6CKC9 entry or part of it): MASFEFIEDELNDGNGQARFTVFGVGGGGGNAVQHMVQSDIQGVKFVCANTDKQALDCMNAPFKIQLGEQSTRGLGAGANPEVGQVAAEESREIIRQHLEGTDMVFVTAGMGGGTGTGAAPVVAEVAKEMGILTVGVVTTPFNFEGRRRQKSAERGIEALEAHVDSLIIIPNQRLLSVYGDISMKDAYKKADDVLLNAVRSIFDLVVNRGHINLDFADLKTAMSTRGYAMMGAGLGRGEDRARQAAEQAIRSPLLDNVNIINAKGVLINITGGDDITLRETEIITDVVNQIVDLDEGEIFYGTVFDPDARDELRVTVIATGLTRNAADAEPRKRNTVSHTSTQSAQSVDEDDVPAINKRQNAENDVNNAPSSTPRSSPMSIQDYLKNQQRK

For orientation: pIC50 means −log10 of the IC50, conventionally taken in molar units. Higher therefore signals a low IC50. With `COC(=O)CSc1ccc2nsnc2c1[N+](=O)[O-]` [C109, methyl [(4-nitro-2,1,3-benzothiadiazol-5-yl)thio]acetate], the pIC50 is 4.93.

(Values after article PMC9687021, “Bactericidal and Anti-Biofilm Activity of the FtsZ Inhibitor C109 against Acinetobacter baumannii” (Antibiotics, 2022).)
